Tests used:
human PPARγ1 = target: T1, human PPARγ1 (Homo sapiens, UniProt P37231); assay: in vitro PPARγ transactivation (GAL4-LBD luciferase reporter in HEK-293 cells); type: cell-based
T1 construct: expressed in transfected cells; host or cells: HEK-293
T1 sequence (P37231 238-503 limits assumed): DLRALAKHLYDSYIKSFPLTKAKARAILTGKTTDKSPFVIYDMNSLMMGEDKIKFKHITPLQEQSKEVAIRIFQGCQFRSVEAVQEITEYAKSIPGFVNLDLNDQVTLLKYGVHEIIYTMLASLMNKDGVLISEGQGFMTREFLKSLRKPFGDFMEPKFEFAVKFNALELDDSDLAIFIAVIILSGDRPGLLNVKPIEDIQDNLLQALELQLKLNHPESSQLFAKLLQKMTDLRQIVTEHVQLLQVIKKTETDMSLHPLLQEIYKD
Source text: (§1) The following procedure was used for in vitro determination of PPARα, γ and δ transactivation.
(§2) The ligand binding domain of human PPARγ1, PPARα or PPARδ was fused to the C-terminal end of DNA binding domain of yeast transcription factor GAL4 in eukaryotic expression vector. Using SuperFect (Qiagen), HEK-293 cells were transfected with this plasmid and a reporter plasmid harboring the luciferase gene driven under the control of 5 tandem GLA4 response elements. In some experiments, pAdVantage vector (Promega) was used to enhance luciferase expression. Compounds were added approximately 48 hours after transfection at various concentrations and incubated overnight. The cells were lysed and the luciferase activity was measured using the LucLite kit in Top Count (Packard). Luciferase activity was expressed as fold activation relative to untreated cells in the same experiment.

Male Swiss albino mice = assay: plasma triglyceride lowering in Swiss albino mice; type: in vivo; conditions: plasma triglycerides
Method: Male Swiss albino mice (SAM) were obtained from National Institute Nutrition (NIN, Hyderabad, India) and housed in Dr. Reddy's Laboratories Ltd (DRL) animal house. All these animals were maintained under 12 hour light and dark cycle at 25±1° C. Animals were given standard laboratory chow (NIN, Hyderabad, India) and water, ad libitum. Mice of 20-25 grams body weight range were used. See Olivier, et al., Atherosclerosis, 1988, 70:107-114, incorporated herein by reference in its entirety. The test compounds were administered orally to mice at the doses shown in the following in table for 6 days. […] After centrifugation, plasma was separated for plasma triglyceride and total cholesterol measurement. See Wieland, Methods of Enzymatic Analysis, Bergermeyer, ed., 1963, 211-214; Trinder, Ann. Clin. Biochenz., 1969, 6:24-27, incorporated herein by reference in their entireties. Measurement of cholesterol and plasma triglyceride was done using a […] autoanalyser (Merck). The percent reductions in plasma triglycerides (TG)/total cholesterol were calculated according to the following formula: [formula] OC=Zero day control group value OT=Zero day treated group value TC=Test day control group value TT=Test day treated group value.

human PPARα = target: T2, human PPARα (Homo sapiens, UniProt Q07869); assay: in vitro PPARα transactivation (GAL4-LBD luciferase reporter in HEK-293 cells); type: cell-based
T2 construct: expressed in transfected cells; host or cells: HEK-293
T2 sequence (Q07869 239-466 limits assumed): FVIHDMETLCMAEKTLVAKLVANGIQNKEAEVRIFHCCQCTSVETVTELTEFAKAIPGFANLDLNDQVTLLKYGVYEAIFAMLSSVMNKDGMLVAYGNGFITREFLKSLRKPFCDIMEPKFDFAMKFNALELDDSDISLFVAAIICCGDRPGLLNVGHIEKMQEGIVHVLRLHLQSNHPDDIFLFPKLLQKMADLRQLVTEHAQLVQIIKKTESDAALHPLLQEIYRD
Source text: Generally, suitable PPAR agonists are believed to be useful for attenuating and/or treatment of diabetic dyslipidemia, metabolic syndrome, diabetes, cardiovascular disease, and obesity. The following procedure was used for in vitro determination of PPARα, γ and δ transactivation.
as §2

human PPARδ = target: T3, human PPARδ (Homo sapiens, UniProt Q03181); assay: in vitro PPARδ transactivation (GAL4-LBD luciferase reporter in HEK-293 cells); type: cell-based
T3 construct: expressed in transfected cells; host or cells: HEK-293
T3 sequence (Q03181 211-439 limits assumed): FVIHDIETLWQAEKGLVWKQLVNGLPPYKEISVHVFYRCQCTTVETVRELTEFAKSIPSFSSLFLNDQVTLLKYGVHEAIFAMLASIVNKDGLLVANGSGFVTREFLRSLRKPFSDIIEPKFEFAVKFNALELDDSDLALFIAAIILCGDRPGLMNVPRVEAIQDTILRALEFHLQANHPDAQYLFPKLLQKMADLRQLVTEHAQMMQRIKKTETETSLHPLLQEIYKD
Source text: as §1, §2

[1] = tested on: hypercholesterolemic Male Sprague Dawley rats; assay: lipid lowering in hypercholesterolemic Sprague Dawley rats; type: in vivo; conditions: hypercholesterolemic SD rats, 3 mg/kg orally for 3 days; for % Reduction TG: plasma triglycerides; for % Reduction TC: total cholesterol; for % Reduction LDL: LDL cholesterol calculated from TC, HDL, TG; for HDL % increase: values represent % increase
Method: Male Sprague Dawley rats (NIN stock) were bred in DRL animal house. Animals were maintained under 12 hour light and dark cycle at 25±1° C. Rats of 180-200 gram body weight range were used for the experiment. Animals were made hypercholesterolemic by feeding 2% cholesterol and 1% sodium cholate mixed with standard laboratory chow (NIN) for 6 days. Throughout the experimental period the animals were maintained on the same diet. Control rats were treated with vehicle alone (0.25% CMC; 10 ml/kg). Blood samples were collected in fed state 1 hour after drug administration on 0 and 3 days of treatment from the retro-orbital sinus through heparinized capillary tubes containing EDTA. After centrifugation, plasma sample was separated for total cholesterol, HDL and plasma triglyceride measurement. Measurement of total cholesterol, HDL and plasma triglyceride was done using a Vitalab Selectra autoanalyser (Merck). HDL was measured using a commercial kit. LDL and VLDL cholesterol were calculated from the data obtained for total cholesterol, HDL and plasma triglyceride.
The percent reductions in plasma triglycerides (TG)/total cholesterol (TC) were calculated as described in Example 55. The levels of LDL and VLDL cholesterol were calculated according to the following formulas: LDL cholesterol in mg/dl=[Total cholesterol−HDL cholesterol−Triglyceride/5] VLDL cholesterol in mg/dl=[Total cholesterol−HDL cholesterol−LDL cholesterol]

PPARγ luciferase fold activation relative to untreated cells (human PPARγ1; 1 μM) | PPARγ luciferase fold activation relative to untreated cells (human PPARγ1; 10 μM) | PPARγ luciferase fold activation relative to untreated cells (human PPARγ1; 50 μM) | PPARα luciferase fold activation relative to untreated cells (human PPARα; 1 μM) | PPARα luciferase fold activation relative to untreated cells (human PPARα; 10 μM) | PPARα luciferase fold activation relative to untreated cells (human PPARα; 50 μM) | melting point | PPARδ luciferase fold activation relative to untreated cells (human PPARδ; 1 μM) | PPARδ luciferase fold activation relative to untreated cells (human PPARδ; 10 μM) | PPARδ luciferase fold activation relative to untreated cells (human PPARδ; 50 μM) | SMILES | % reduction in TG (Male Swiss albino mice; 3 mg/kg orally for 6 days) | % Reduction TG [1] | % Reduction TC [1] | % Reduction LDL [1] | HDL % increase [1] | % reduction in TG (Male Swiss albino mice; 1 mg/kg orally for 6 days)
0.9 | 3.5 | 9.5 | 4.0 | 5.7 | 5.1 | 115 to 117 °C | 7.5 | 23 | 47 | CCC(C)(Oc1ccc(OCCCc2cc(-c3ccccc3)no2)cc1)C(=O)O (centres unmarked) [Example 10] | 75% |  |  |  |  | 
2.4 | 2.7 | 3.6 | 4.1 | 4.0 | 4.0 | 136 to 138 °C |  |  |  | CCC(C)(Oc1ccc(OCc2cc(-c3ccc(C(F)(F)F)cc3)no2)cc1)C(=O)O (centres unmarked) [Example 11] | 65% | 55% | 71% | 76% | 139% | 
4.3 | 9.8 | 13.5 | 4.1 | 4.9 | 5.4 |  | 0.9 | 26.4 | 23.2 | O=C(O)C1(Cc2ccc(OCc3cc(-c4ccc(C(F)(F)F)cc4)no3)cc2)CCCO1 (centres unmarked) [Example 36] |  | 63% | 52% | 62% | 128% | 26%
0.9 | 1.2 | 6.4 | 1.7 | 3.8 | 6.0 |  | 9.0 | 10 | 33 | CCC(C)(Oc1ccc(OCc2cc(-c3ccc(OS(C)(=O)=O)cc3)no2)cc1)C(=O)O (centres unmarked) [Example 5] | 75% |  |  |  |  | 
